Molecules are shown by their SMILES.

In test [1] the target is IKKε (Homo sapiens (Human), UniProt Q14164). Put plainly: TR-FRET kinase assay, IKKε. The note with it: full length recombinant IKKε 0.3 nM, 2x Km ATP, 1 μM peptide, 240 min at 25° C.; geometric mean of minimum four determinations. In kind it is biochemical. The text has this:
Biological Assay for TBK1 and IKKs:

Test [2] has as its target TBK1 (Homo sapiens (Human), UniProt Q9UHD2). Put plainly: TR-FRET kinase assay, TBK1. Particulars: read-out: TBK1-IC50; full length recombinant TBK1 2.5 nM, 2x Km ATP, 1 μM peptide, 240 min at 25° C.; geometric mean of minimum four determinations. In general terms: TR-FRET usually uses a lanthanide donor and a delayed reading to cut background.
Experimental: Enzymatic activity of IKKε and TBK1 was measured using a homogeneous time resolved fluorescence resonance energy transfer (TR-FRET) assay that monitors enzyme dependent phosphorylation of a biotinylated serine/threonine peptide substrate. […] TBK1 and IKKs were expressed and purified as full length recombinant proteins. Detection reagents for the assay were purchased from Cisbio. […] After an assay reaction time of 240 minutes at 25° C., reactions were terminated with EDTA.
Amount of phosphorylated peptide was determined by the addition of 125 nM streptavidin XL665 and europium cryptate labeled anti-phospho monoclonal antibody and the resulting TR-FRET signal was recorded on an Envision plate reader (Ex: 340 nm; Em: 615/665 nm; 100 μs delay and 200 μs read window). […] All IC50 values represent geometric mean values of a minimum of four determinations.

Sequence of TBK1 (Q9UHD2 whole entry): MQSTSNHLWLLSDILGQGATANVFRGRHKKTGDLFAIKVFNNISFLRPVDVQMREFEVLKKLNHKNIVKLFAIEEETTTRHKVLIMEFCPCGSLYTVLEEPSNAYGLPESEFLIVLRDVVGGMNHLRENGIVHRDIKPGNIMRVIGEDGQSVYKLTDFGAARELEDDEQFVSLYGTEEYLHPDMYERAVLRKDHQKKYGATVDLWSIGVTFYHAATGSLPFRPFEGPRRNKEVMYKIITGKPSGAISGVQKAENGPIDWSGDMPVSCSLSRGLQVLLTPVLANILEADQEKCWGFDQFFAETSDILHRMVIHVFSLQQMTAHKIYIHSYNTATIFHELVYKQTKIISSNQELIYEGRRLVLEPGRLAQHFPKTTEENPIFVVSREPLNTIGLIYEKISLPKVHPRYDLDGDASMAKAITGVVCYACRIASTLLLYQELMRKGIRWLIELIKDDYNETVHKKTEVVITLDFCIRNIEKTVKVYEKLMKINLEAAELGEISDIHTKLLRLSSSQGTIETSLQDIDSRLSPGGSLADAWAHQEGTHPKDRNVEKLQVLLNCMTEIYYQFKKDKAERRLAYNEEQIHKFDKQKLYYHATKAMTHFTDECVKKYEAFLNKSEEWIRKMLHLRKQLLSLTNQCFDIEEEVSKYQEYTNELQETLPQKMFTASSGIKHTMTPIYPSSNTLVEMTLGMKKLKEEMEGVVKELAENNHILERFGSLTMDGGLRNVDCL
Sequence of IKKε (Q14164 whole entry): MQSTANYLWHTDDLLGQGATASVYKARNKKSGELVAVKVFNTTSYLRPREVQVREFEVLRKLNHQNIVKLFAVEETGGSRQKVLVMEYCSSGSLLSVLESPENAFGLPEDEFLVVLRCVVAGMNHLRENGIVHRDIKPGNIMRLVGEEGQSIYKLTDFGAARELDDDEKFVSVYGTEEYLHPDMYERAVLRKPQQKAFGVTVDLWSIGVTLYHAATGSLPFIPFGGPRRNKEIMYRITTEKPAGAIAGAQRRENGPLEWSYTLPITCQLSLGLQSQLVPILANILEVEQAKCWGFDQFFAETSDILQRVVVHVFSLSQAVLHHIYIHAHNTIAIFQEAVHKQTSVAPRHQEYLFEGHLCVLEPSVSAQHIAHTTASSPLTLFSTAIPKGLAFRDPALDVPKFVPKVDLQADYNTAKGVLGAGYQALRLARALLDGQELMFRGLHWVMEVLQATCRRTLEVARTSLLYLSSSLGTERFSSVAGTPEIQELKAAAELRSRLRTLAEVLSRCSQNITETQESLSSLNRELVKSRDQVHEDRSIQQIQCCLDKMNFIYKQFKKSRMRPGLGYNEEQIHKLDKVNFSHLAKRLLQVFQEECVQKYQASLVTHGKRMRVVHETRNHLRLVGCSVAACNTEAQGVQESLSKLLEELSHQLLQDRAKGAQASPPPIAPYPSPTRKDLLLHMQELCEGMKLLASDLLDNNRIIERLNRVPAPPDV

In the case of `N#Cc1cc(-c2ccnc3[nH]c(-c4ccc(-n5cccn5)cc4)cc23)ccc1OC1CCOCC1` [Example 177, 5-(2-(4-(1H-pyrazol-1-yl)phenyl)-1H-pyrrolo[2,3-b]pyridin-4-yl)-2-((tetrahydro-2H-pyran-4-yl)oxy)benzonitrile], the IC50 in test [1] turned out to be 1000 nM; in test [2] it was 33.5 nM.

For the molecule `CS(=O)(=O)c1ccc(-c2cc3c(-c4ccc(OC5CCOCC5)c(C#N)c4)ccnc3[nH]2)cc1` [Example 42, 5-(2-(4-(methylsulfonyl)phenyl)-1H-pyrrolo[2,3-b]pyridin-4-yl)-2-((tetrahydro-2H-pyran-4-yl)oxy)benzonitrile], the concentration for half-maximal inhibition (IC50) in test [1] was 6.42 nM; in test [2] it was 3.75 nM.

Turning to `N#Cc1cc(-c2ncnc3[nH]c(-c4ccc(N5CCOCC5)c(F)c4)cc23)ccc1OC1CCOCC1` [Example 156, 5-(6-(3-fluoro-4-morpholinophenyl)-7H-pyrrolo[2,3-d]pyrimidin-4-yl)-2-((tetrahydro-2H-pyran-4-yl)oxy)benzonitrile], the IC50 in test [1] was 14.3 nM; in test [2], 2.78 nM.

With `CC(C)NC(=O)c1cc2c(-c3ccc(OC4CCOCC4)c(C#N)c3)ccnc2[nH]1` [Example 60, 4-(3-cyano-4-((tetrahydro-2H-pyran-4-yl)oxy)phenyl)-N-isopropyl-1H-pyrrolo[2,3-b]pyridine-2-carboxamide], the IC50 worked out at 44.5 nM in test [1] and 63.8 nM in test [2].

For `COc1cc(-c2cc3c(-c4ccc(O[C@H]5CCN(C(=O)CO)C[C@H]5F)c(C#N)c4)ncnc3[nH]2)ccc1N1CCN(C2COC2)CC1` [Example 145, 2-(((3R,4S)-3-fluoro-1-(2-hydroxyacetyl)piperidin-4-yl)oxy)-5-(6-(3-methoxy-4-(4-(oxetan-3-yl)piperazin-1-yl)phenyl)-7H-pyrrolo[2,3-d]pyrimidin-4-yl)benzonitrile], the half-maximal inhibitory concentration (IC50) came out at 0.481 nM in test [1] and 1.05 nM in test [2].

Consider `COC(=O)c1ccc(-c2cc3c(-c4ccc(OC5CCN(C(=O)CO)CC5)c(C#N)c4)ncnc3[nH]2)cc1` [Example 159, Methyl 4-(4-(3-cyano-4-((1-(2-hydroxyacetyl)piperidin-4-yl)oxy)phenyl)-7H-pyrrolo[2,3-d]pyrimidin-6-yl)benzoate], for which the 50% inhibitory concentration (IC50) in test [1] came to 5.09 nM; in test [2] it was 2.17 nM.

For the molecule `C[C@H](O)C(=O)N1CCC(Oc2ccc(-c3ncnc4[nH]c(-c5ccc(N6CCOCC6)cc5)nc34)cc2C#N)CC1` [Example 234, (S)-2-((1-(2-hydroxypropanoyl)piperidin-4-yl)oxy)-5-(8-(4-morpholinophenyl)-9H-purin-6-yl)benzonitrile], the values for the half-inhibitory concentration (IC50) in test [1] and in test [2] were 8.64 nM and 2.34 nM, respectively.

With `CC1(C)C(=O)Nc2cc(-c3cc4c(-c5ccc(OC6CCOCC6)c(C#N)c5)ccnc4[nH]3)ccc21` [Example 76, 5-(2-(3,3-dimethyl-2-oxoindolin-6-yl)-1H-pyrrolo[2,3-b]pyridin-4-yl)-2-((tetrahydro-2H-pyran-4-yl)oxy)benzonitrile], the 50% inhibitory concentration (IC50) is over 1000 nM in test [1] and 5.76 nM in test [2].

`N#Cc1cc(-c2ccnc3[nH]c(-c4ccc(N5CCOCC5)cc4)cc23)ccc1OC1CCNCC1` [Example 18, 5-(2-(4-morpholinophenyl)-1H-pyrrolo[2,3-b]pyridin-4-yl)-2-(piperidin-4-yloxy)benzonitrile]: the IC50 in test [1] came to 33.2 nM; in test [2], 17.1 nM.

Regarding `N#Cc1cc(-c2ncnc3[nH]c(-c4ccc(N5CCOCC5)cc4)nc23)ccc1O[C@@H]1CCN(C(=O)CO)C1` [Example 208, (R)-2-((1-(2-hydroxyacetyl)pyrrolidin-3-yl)oxy)-5-(8-(4-morpholinophenyl)-9H-purin-6-yl)benzonitrile], the IC50 in test [1] was found to be 7.58 nM; in test [2], 1.68 nM.

Consider `N#Cc1cc(-c2ccnc3[nH]c(-c4ccc(N5CCOCC5)cc4)nc23)ccc1OC1CCNCC1` [Example 197, 5-(2-(4-morpholinophenyl)-3H-imidazo[4,5-b]pyridin-7-yl)-2-(piperidin-4-yloxy)benzonitrile], for which the 50% inhibitory concentration (IC50) in test [1] was 109 nM; in test [2], 29.1 nM.

In the case of `N#Cc1cc(-c2ncnc3[nH]c(-c4ccc(C5CCN(CC(F)F)CC5)cc4)nc23)ccc1OC1CCN(C(=O)CO)CC1` [Example 255, 5-(8-(4-(1-(2,2-difluoroethyl)piperidin-4-yl)phenyl)-9H-purin-6-yl)-2-((1-(2-hydroxyacetyl)piperidin-4-yl)oxy)benzonitrile], the IC50 was 3.48 nM in test [1] and 1.53 nM in test [2].

As for `N#Cc1cc(-c2ncnc3[nH]c(-c4ccc(N5CCOCC5)cc4)nc23)ccc1OC1CCN(C=O)CC1` [Example 250, 2-((1-formylpiperidin-4-yl)oxy)-5-(8-(4-morpholinophenyl)-9H-purin-6-yl)benzonitrile], the IC50 in test [1] amounted to 9.86 nM; in test [2], 2.25 nM.

Consider `CN1CCN(c2ccc(-c3nc4c(-c5ccc(OC6CCOCC6)c(C#N)c5)ncnc4[nH]3)cc2)CC1` [Example 212, 5-(8-(4-(4-methylpiperazin-1-yl)phenyl)-9H-purin-6-yl)-2-((tetrahydro-2H-pyran-4-yl)oxy)benzonitrile], for which the half-maximal inhibitory concentration (IC50) in test [1] amounted to 1.08 nM; in test [2], 1.14 nM.

As for `CC(C)(O)c1ccc(-c2cc3c(-c4ccc(OC5CCOCC5)c(C#N)c4)c(F)cnc3[nH]2)cc1` [Example 173, 5-(5-fluoro-2-(4-(2-hydroxypropan-2-yl)phenyl)-1H-pyrrolo[2,3-b]pyridin-4-yl)-2-((tetrahydro-2H-pyran-4-yl)oxy)benzonitrile], the figures for the half-inhibitory concentration (IC50) in test [1] and in test [2] were 115 nM and 15.6 nM, respectively.

As to `Cc1cc(N2CCOCC2)ccc1-c1cc2c(-c3ccc(OC4CCOCC4)c(C#N)c3)ccnc2[nH]1` [Example 124, 5-(2-(2-methyl-4-morpholinophenyl)-1H-pyrrolo[2,3-b]pyridin-4-yl)-2-((tetrahydro-2H-pyran-4-yl)oxy)benzonitrile], the half-maximal inhibitory concentration (IC50) is 18.6 nM in test [1] and 5.9 nM in test [2].

In the case of `CC(C)(C)OC(=O)N1CC[C@H](Oc2ccc(-c3ccnc4[nH]c(-c5ccc(N6CCOCC6)cc5)cc34)cc2C#N)C1` [Example 25, (S)-tert-butyl 3-(2-cyano-4-(2-(4-morpholinophenyl)-1H-pyrrolo[2,3-b]pyridin-4-yl)phenoxy)pyrrolidine-1-carboxylate], the half-maximal inhibitory concentration (IC50) in test [1] turned out to be 306 nM; in test [2], 115 nM.

Take `N#Cc1cc(-c2ncnc3[nH]c(-c4ccc(N5CCOCC5)cc4)cc23)ccc1O[C@@H]1CCNC1` [Example 106, (R)-5-(6-(4-morpholinophenyl)-7H-pyrrolo[2,3-d]pyrimidin-4-yl)-2-(pyrrolidin-3-yloxy)benzonitrile]: the IC50 was 19 nM in test [1] and 4.94 nM in test [2].

`N#Cc1cc(-c2ncnc3[nH]c(-c4ccc(C5CCN(CC(F)(F)F)CC5)cc4)nc23)ccc1OC1CCN(C(=O)CO)CC1` [Example 257, 2-((1-(2-hydroxyacetyl)piperidin-4-yl)oxy)-5-(8-(4-(1-(2,2,2-trifluoroethyl)piperidin-4-yl)phenyl)-9H-purin-6-yl)benzonitrile]: the figures for the IC50 in test [1] and in test [2] were 14 nM and 3.8 nM, respectively.

On to `CC(C)(O)c1ccc(-c2cc3c(-c4ccc(OC5CCOCC5)c(C#N)c4)ncnc3[nH]2)cn1` [Example 129, 5-(6-(6-(2-hydroxypropan-2-yl)pyridin-3-yl)-7H-pyrrolo[2,3-d]pyrimidin-4-yl)-2-((tetrahydro-2H-pyran-4-yl)oxy)benzonitrile], for which the half-inhibitory concentration (IC50) amounted to 17.4 nM in test [1] and 2.77 nM in test [2].

`N#Cc1cc(-c2ncnc3[nH]c(-c4ccc(Cn5ccnc5)cc4)cc23)ccc1OC1CCOCC1` [Example 114, 5-(6-(4-((1H-imidzol-1-yl)methyl)phenyl)-7H-pyrrolo[2,3-d]pyrimidin-4-yl)-2-((tetrahydro-2H-pyran-4-yl)oxy)benzonitrile]: the IC50 in test [1] was found to be 5.79 nM; in test [2], 5.13 nM.

For the molecule `N#Cc1cc(-c2ccnc3[nH]c(C4=CC5CCC4C5)cc23)ccc1OC1CCOCC1` (stereo not drawn) [Example 43, 5-(2-(bicyclo[2.2.1]hept-2-en-2-yl)-1H-pyrrolo[2,3-b]pyridin-4-yl)-2-((tetrahydro-2H-pyran-4-yl)oxy)benzonitrile], the half-maximal inhibitory concentration (IC50) in test [1] was over 1000 nM; in test [2], 434 nM.

In the case of `N#Cc1cc(-c2ncnc3[nH]c(-c4ccc(C(=O)NC5COC5)cc4)cc23)ccc1OC1CCN(C(=O)CO)CC1` [Example 163, 4-(4-(3-Cyano-4-((1-(2-hydroxyacetyl)piperidin-4-yl)oxy)phenyl)-7H-pyrrolo[2,3-d]pyrimidin-6-yl)-N-(oxetan-3-yl)benzamide], the 50% inhibitory concentration (IC50) is 1.8 nM in test [1] and 1.78 nM in test [2].

As to `N#Cc1cc(-c2ncnc3[nH]c(-c4ccc(N5CCOCC5)cc4)nc23)ccc1OCC1CC1` [Example 202, 2-(cyclopropylmethoxy)-5-(8-(4-morpholinophenyl)-9H-purin-6-yl)benzonitrile], the IC50 in test [1] and in test [2] was over 1000 nM throughout.

On to `N#Cc1cc(-c2ccnc3[nH]c(-c4ccccc4)cc23)ccc1OC1CCOCC1` [Example 83, 5-(2-phenyl-1H-pyrrolo[2,3-b]pyridin-4-yl)-2-((tetrahydro-2H-pyran-4-yl)oxy)benzonitrile], for which the IC50 in test [1] was 19.8 nM; in test [2] it was over 1000 nM.

Consider `N#Cc1cc(-c2ncnc3[nH]c(-c4ccc(C5CCN(CC(F)(F)F)CC5)cc4)nc23)ccc1OC1CCNCC1` [Example 261, 2-(piperidin-4-yloxy)-5-(8-(4-(1-(2,2,2-trifluoroethyl)piperidin-4-yl)phenyl)-9H-purin-6-yl)benzonitrile], for which the IC50 in test [1] stood at 96 nM; in test [2], 37.1 nM.

Regarding `N#Cc1cc(-c2ncnc3[nH]c(-c4ccc(OCCN5CCCC5)cc4)cc23)ccc1N1CC(O)C1` [Example 227, 2-(3-hydroxyazetidin-1-yl)-5-(6-(4-(2-(pyrrolidin-1-yl)ethoxy)phenyl)-7H-pyrrolo[2,3-d]pyrimidin-4-yl)benzonitrile], the concentration for half-maximal inhibition (IC50) in test [1] was 70.2 nM; in test [2], 42.4 nM.

Broadly, the IC50 is the concentration that gives 50% inhibition.

(Values after patent US10072001B2, “Tank-binding kinase inhibitor compounds” (Gilead Sciences, Inc., priority 2014, dated 2018).)
